Test system: androgen receptor α (ARα)
Experiment: Gal4DBD-LBD/UAS luciferase transactivation assay in U-2 OS cells
Format: cell-based, Apteronotus albifrons

Row | Structure (SMILES) | EC50 [nM]
1 | C[C@]12CC(=O)[C@H]3[C@@H](CCC4=CC(=O)CC[C@@]43C)[C@@H]1CC[C@@H]2O [11-KT] | 10

Source: article PMC10695101 (Molecular and cellular endocrinology, 2023)
